# Measured values taken from patent US20120165403A1, “METHODS OF INHIBITING THE ACTIVITY OF HSP90 AND/OR ARYL HYDROCARBON RECEPTOR” (UNIVERSITY OF ROCHESTER, priority 2004, published 2012).
# Columns and labels:
# XAP2 = biological target: T1, XAP2 (Mus musculus, UniProt O08915); assay: Affinity chromatography on EGCG-conjugated Sepharose, XAP2; format: binding
# T1 construct: His tag; made in house; host or cells: TNT rabbit reticulocyte lysate; partly purified on TALON cobalt resin
# T1 sequence (O08915 1-330): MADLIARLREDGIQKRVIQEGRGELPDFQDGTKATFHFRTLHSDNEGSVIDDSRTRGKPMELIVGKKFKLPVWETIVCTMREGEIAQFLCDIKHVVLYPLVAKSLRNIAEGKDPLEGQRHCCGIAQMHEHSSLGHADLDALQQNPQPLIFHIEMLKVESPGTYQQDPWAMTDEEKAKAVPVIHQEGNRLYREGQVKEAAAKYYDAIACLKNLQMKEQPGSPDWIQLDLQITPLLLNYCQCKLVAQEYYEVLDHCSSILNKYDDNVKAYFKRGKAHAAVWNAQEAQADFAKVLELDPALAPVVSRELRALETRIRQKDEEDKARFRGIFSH
# Source text: Murine AhR and ARNT cDNA (obtained from J. Whitlock and O. Hankinson, respectively) were inserted into pcDNA3 (Invitrogen, Carlsbad, Calif.). Chicken hsp90 constructs (FIG. 5), c90711hsp (wild-type), c90G94D (wild-type point mutant gly94→Asp (Grenert et al., J. Biol. Chem. 272:23843-23850 (1997), which is hereby incorporated by reference in its entirety), c90D92A (wild-type point mutant Asp92→Ala (Sullivan et al., J. Biol. Chem. 268:20373-20379 (1993), which is hereby incorporated by reference in its entirety), c90N221 (wild-type truncation mutant encoding a.a. 221-728 (Sullivan et al., J. Biol. Chem. 268:20373-20379 (1993), which is hereby incorporated by reference in its entirety)), c90N303 (a.a. 303-728) and c90N538 (a.a. 538-728) were kind gifts from Dr. D. Toft (Rochester, Minn.). The C-terminal truncation mutant c900507 (a.a. 1-221) was obtained from Dr. L. Neckers (Rockville, Md.) (Grenert et al., J. Biol. Chem. 272:23843-23850 (1997); Marcu et al., J. Biol. Chem. 275:37181-37186 (2000), which are hereby incorporated by reference in their entirety). Human p23 cDNA was excised from pQE80-p23 (obtained from W. Chan Stockton, Calif.) by sequential digests using the restriction enzymes Sad (3′-end) and BamHI (5′-end) and inserted into the similarly digested pET28a (Novagen, Madison, Wis.). The mouse histidine-tagged XAP2 construct, pET-AIP (Bell et al., J. Biol. Chem. 275:36407-36414 (2000), which is hereby incorporated by reference in its entirety), was a kind gift from Dr. D. Bell (Nottingham, UK). All constructs are in the T7 orientation with the exception of c900507, which is driven by an SP6 promoter.
# AhR, ARNT, hsp90 (wild-type, point mutants, and truncation mutants), p23, and XAP2 were generated (separately) by coupled transcription/translation in rabbit reticulocyte lysate (RRL) using the TNT® system according to the manufacturer's protocol (Promega, Madison Wis.). In this system, ^35S-methionine was included in the transcription/translation mix to generate ^35S-labeled protein.
# Immobilized Metal Affinity Chromatography (IMAC) Purification of Histidine-Tagged XAP2. The TALON IMAC method was used for purification of XAP2 from RRL following a modified protocol (Clonetech). A 500 μL (50% slurry) of cobalt resin was washed at room temperature three times with TALON buffer (50 mM Na2PO4, 300 mM NaCl, pH 7.0) according to the manufacturer's protocol. A 175 μL aliquot of undiluted ^35S-XAP2 in RRL was added to a 15 ml conical tube containing the washed resin in TALON buffer for 20 minutes at room temperature end-over-end. […] Each aliquot was collected separately and analyzed for the presence of ^35S-XAP2 by SDS-PAGE followed by Phosphorimaging (PSI; Molecular Dynamics, Sunnyvale, Calif.). […]
# hsp90 = assay: Affinity chromatography on EGCG-conjugated Sepharose, Hepa cytosol hsp90; format: binding, mouse
# chicken hsp90 = chicken hsp90 (Gallus gallus, UniProt P11501); assay: Trypsin treatment of in vitro translated hsp90; format: biochemical; parameters: made in house; host or cells: TNT rabbit reticulocyte lysate, 35S-labelled; settings: in absence of AhR or ARNT, trypsin 10 minutes at room temperature
# Method: Chicken hsp90 was translated in vitro using the TNT RRL system as described supra in the presence of [^35S]Methionine, diluted, incubated with DMSO or EGCG, and treated with trypsin at indicated concentrations for 10 minutes at room temperature. All samples were separated by 10% SDS-PAGE, transferred to PVDF membrane, and visualized by phosphorImager. Results of the experiment are illustrated in FIG. 13. […] Therefore, the ability of EGCG to affect hsp90 conformation is not dependent on the presence of AhR or ARNT.
structure (smiles),measurement,setting,value
"O=C(O[C@@H]1Cc2c(O)cc(O)cc2O[C@@H]1c1cc(O)c(O)c(O)c1)c1cc(O)c(O)c(O)c1 [EGCG, epigallocatechin gallate]",binding of XAP2 to EGCG-Sepharose,XAP2; 35S-XAP2 in RRL,eluted from EGCG-Sepharose
same,binding of XAP2 to EGCG-Sepharose,XAP2; Hepa cytosol,also eluted from EGCG-Sepharose
same,binding of purified XAP2 to immobilized EGCG,"XAP2; His-purified XAP2, devoid of detectable hsp90",not specifically eluted from immobilized EGCG
same,binding of purified XAP2 after reconstitution,XAP2; His-purified XAP2 with purified hsp90 or RRL,restores XAP2 elution
same,binding of hsp90 to EGCG-Sepharose,hsp90,also eluted from EGCG-Sepharose
same,effect on hsp90 conformation (trypsin treatment),chicken hsp90,altered conformation of hsp90
